What was measured:
Mus musculus [1] = assay: Prodrug conversion in C57B1/6 mouse assessed as 4-[4-((Thiiran-2-yl)methylsulphonyl)phenoxy]benzamine level in plasma at […], iv administered as single bolus dose after 7 to 8 mins by reversed-phase HPLC/UV analysis; format: ADME, organism-based; conditions: in vivo
Mus musculus [2] = assay: Prodrug conversion in C57B1/6 mouse assessed as 4-[4-((Thiiran-2-yl)methylsulphonyl)phenoxy]benzamine level in plasma at […], iv administered as single bolus dose after 11 to 12 mins by reversed-phase HPLC/UV analysis; format: ADME, organism-based; conditions: in vivo, read-out: Drug metabolism
Mus musculus [3] = assay: Prodrug conversion in C57B1/6 mouse assessed as 4-[4-((Thiiran-2-yl)methylsulphonyl)phenoxy]benzamine level in plasma at […], iv administered as single bolus dose after 42 mins by reversed-phase HPLC/UV analysis; format: ADME, organism-based; conditions: in vivo, 0.7 h, read-out: Drug metabolism
Mus musculus [4] = assay: Prodrug conversion in C57B1/6 mouse assessed as 4-[4-((Thiiran-2-yl)methylsulphonyl)phenoxy]benzamine level in plasma at […], iv administered as single bolus dose after 62 to 66 mins by reversed-phase HPLC/UV analysis; format: ADME, organism-based; conditions: in vivo, read-out: Drug metabolism
Mus musculus [5] = assay: Prodrug conversion in C57B1/6 mouse assessed as 4-[4-((Thiiran-2-yl)methylsulphonyl)phenoxy]benzamine level in plasma at […], iv administered as single bolus dose after 240 mins by reversed-phase HPLC/UV analysis; format: ADME, organism-based; conditions: in vivo, 4 h, read-out: Drug metabolism
Mus musculus [6] = assay: Prodrug conversion in C57B1/6 mouse assessed as N-(4-(4-(thiiran-2-ylmethylsulfonyl)phenoxy)phenyl)acetamide level in plasma at […], iv administered as single bolus dose after 4 to 5 mins by reversed-phase HPLC/UV analysis; format: ADME, organism-based; conditions: in vivo, read-out: Drug metabolism
Mus musculus [7] = assay: Prodrug conversion in C57B1/6 mouse assessed as N-(4-(4-(thiiran-2-ylmethylsulfonyl)phenoxy)phenyl)acetamide level in plasma at […], iv administered as single bolus dose after 22 mins by reversed-phase HPLC/UV analysis; format: ADME, organism-based; conditions: in vivo
Mus musculus [8] = assay: AUC (0 to last) in C57B1/6 mouse plasma assessed as parent compound level at […], iv administered as single bolus dose; format: ADME, organism-based; conditions: in vivo
Mus musculus [9] = assay: AUC (0 to infinity) in C57B1/6 mouse plasma assessed as parent compound level at […], iv administered as single bolus dose; format: ADME, organism-based; conditions: in vivo
Mus musculus [10] = assay: Clearance in C57B1/6 mouse plasma assessed as parent compound level at […], iv administered as single bolus dose; format: ADME, organism-based; conditions: in vivo
Mus musculus [11] = assay: Volume of distribution in C57B1/6 mouse plasma assessed as parent compound level at […], iv administered as single bolus dose; format: ADME, organism-based; conditions: in vivo
Mus musculus [12] = assay: Distribution half life in C57B1/6 mouse plasma assessed as parent compound level at […], iv administered as single bolus dose; format: ADME, organism-based; conditions: in vivo
Mus musculus [13] = assay: Terminal half life in C57B1/6 mouse plasma assessed as parent compound level at […], iv administered as single bolus dose; format: ADME, organism-based; conditions: in vivo
Mus musculus [14] = assay: Prodrug conversion in C57B1/6 mouse plasma assessed as parent compound level at […], iv administered as single bolus dose after 42 mins by reversed-phase LC/MS analysis; format: ADME, organism-based; conditions: in vivo, 0.7 h
Mus musculus [15] = assay: Prodrug conversion in C57B1/6 mouse plasma assessed as parent compound level at […], iv administered as single bolus dose after 62 to 66 mins by reversed-phase LC/MS analysis; format: ADME, organism-based; conditions: in vivo, read-out: Drug metabolism
Mus musculus [16] = assay: Prodrug conversion in C57B1/6 mouse plasma assessed as parent compound level at […], iv administered as single bolus dose after 240 mins by reversed-phase LC/MS analysis; format: ADME, organism-based; conditions: in vivo, 4 h, read-out: Drug metabolism
Mus musculus [17] = assay: AUC (0 to last) in C57B1/6 mouse plasma assessed as 4-[4-((Thiiran-2-yl)methylsulphonyl)phenoxy]benzamine level at […], iv administered as single bolus dose; format: ADME, organism-based; conditions: in vivo
Mus musculus [18] = assay: AUC (0 to infinity) in C57B1/6 mouse plasma assessed as 4-[4-((Thiiran-2-yl)methylsulphonyl)phenoxy]benzamine level at […], iv administered as single bolus dose; format: ADME, organism-based; conditions: in vivo
Mus musculus [19] = assay: Terminal half life in C57B1/6 mouse plasma assessed as 4-[4-((Thiiran-2-yl)methylsulphonyl)phenoxy]benzamine level at […], iv administered as single dose; format: ADME, organism-based; conditions: in vivo
Mus musculus [20] = assay: AUC (0 to last) in C57B1/6 mouse plasma assessed as N-(4-(4-(thiiran-2-ylmethylsulfonyl)phenoxy)phenyl)acetamide level at […], iv administered as single bolus dose; format: ADME, organism-based; conditions: in vivo
Mus musculus [21] = assay: Distribution half life in C57B1/6 mouse plasma assessed as N-(4-(4-(thiiran-2-ylmethylsulfonyl)phenoxy)phenyl)acetamide level at […], iv administered as single bolus dose; format: ADME, organism-based; conditions: in vivo
Mus musculus [22] = assay: Terminal half life in C57B1/6 mouse plasma assessed as N-(4-(4-(thiiran-2-ylmethylsulfonyl)phenoxy)phenyl)acetamide level at […], iv administered as single bolus dose; format: ADME, organism-based; conditions: in vivo, BLD = below limit of detection
Mus musculus [23] = assay: Prodrug conversion in C57B1/6 mouse assessed as 4-[4-((Thiiran-2-yl)methylsulphonyl)phenoxy]benzamine level in plasma at […], iv administered as single bolus dose after 4 to 5 mins by reversed-phase HPLC/UV analysis; format: ADME, organism-based; conditions: in vivo
Mus musculus [24] = assay: Prodrug conversion in C57B1/6 mouse assessed as N-(4-(4-((Thiiran-2-ylmethyl)sulfonyl)phenoxy)phenyl) hydroxylamine level in plasma at […], iv administered as single dose by reversed-phase LC/MS analysis; format: ADME, organism-based; conditions: in vivo
Mus musculus [25] = assay: Prodrug conversion in C57B1/6 mouse assessed as N-(4-(4-((Thiiran-2-ylmethyl)sulfonyl)phenoxy)phenyl) hydroxylamine level in urine at […], iv administered as single dose by reversed-phase LC/MS analysis; format: ADME, organism-based; conditions: in vivo
Mus musculus [26] = assay: Prodrug conversion in C57B1/6 mouse plasma assessed as parent compound level at […], iv administered as single bolus dose after 2 to 3 mins by reversed-phase LC/MS analysis; format: ADME, organism-based; conditions: in vivo, read-out: Drug metabolism
Mus musculus [27] = assay: Prodrug conversion in C57B1/6 mouse plasma assessed as parent compound level at […], iv administered as single bolus dose after 7 to 8 mins by reversed-phase LC/MS analysis; format: ADME, organism-based; conditions: in vivo
Mus musculus [28] = assay: Prodrug conversion in C57B1/6 mouse plasma assessed as parent compound level at […], iv administered as single bolus dose after 11 to 12 mins by reversed-phase LC/MS analysis; format: ADME, organism-based; conditions: in vivo, read-out: Drug metabolism
Mus musculus [29] = assay: Prodrug conversion in C57B1/6 mouse plasma assessed as parent compound level at […], iv administered as single bolus dose after 22 mins by reversed-phase LC/MS analysis; format: ADME, organism-based; conditions: in vivo, read-out: Drug metabolism
Mus musculus [30] = assay: Prodrug conversion in C57B1/6 mouse assessed as N-(4-(4-(thiiran-2-ylmethylsulfonyl)phenoxy)phenyl)acetamide level in plasma at […], iv administered as single bolus dose after 7 to 8 mins by reversed-phase LC/MS analysis; conditions: in vivo
Mus musculus [31] = assay: Prodrug conversion in C57B1/6 mouse assessed as N-(4-(4-(thiiran-2-ylmethylsulfonyl)phenoxy)phenyl)acetamide level in plasma at […], iv administered as single bolus dose after 11 to 12 mins by reversed-phase LC/MS analysis; conditions: in vivo
Mus musculus [32] = assay: Prodrug conversion in C57B1/6 mouse assessed as N-(4-(4-(thiiran-2-ylmethylsulfonyl)phenoxy)phenyl)acetamide level in plasma at […], iv administered as single bolus dose after 62 to 66 mins by reversed-phase LC/MS analysis; conditions: in vivo

**Q.** Which results are given for `Cl.N=C(N)NCCC[C@H](N)C(=O)Nc1ccc(Oc2ccc(S(=O)(=O)CC3CS3)cc2)cc1` (some centres not stated)?
**A.** Drug metabolism (Mus musculus [1]): 4.5 µM; concentration (Mus musculus [2]): 2450 nM; concentration (Mus musculus [3]): 207 nM; concentration (Mus musculus [4]): 90.8 nM; concentration (Mus musculus [5]): 14.5 nM; concentration (Mus musculus [6]): 231 nM; Drug metabolism (Mus musculus [7]): 0.0627 µM; AUClast (Mus musculus [8]): 360 µM·min; AUC (Mus musculus [9]): 363 µM·min; CL (Mus musculus [10]): 58.2 mL/min/kg; Vd (Mus musculus [11]): 0.0978 L/kg; alphat1/2 (Mus musculus [12]): 0.88 min; beta t1/2 (Mus musculus [13]): 4.33 h; Drug metabolism (Mus musculus [14]): 0.0872 µM; concentration (Mus musculus [15]): 38.5 nM; concentration (Mus musculus [16]): 8.3 nM; AUClast (Mus musculus [17]): 137 µM·min; AUC (Mus musculus [18]): 138 µM·min; beta t1/2 (Mus musculus [19]): 1.15 h; AUClast (Mus musculus [20]): 4.22 µM·min; alphat1/2 (Mus musculus [21]): 12 min; beta t1/2 (Mus musculus [22]): BLD; Drug metabolism (Mus musculus [23]): 10.4 µM; Drug metabolism (Mus musculus [24]): Not Active; Drug metabolism (Mus musculus [25]): Not Active; concentration (Mus musculus [26]): 35100 nM; Drug metabolism (Mus musculus [27]): 1.28 µM; concentration (Mus musculus [28]): 1580 nM; concentration (Mus musculus [29]): 138 nM; Drug metabolism (Mus musculus [30]): 0.176 µM; Drug metabolism (Mus musculus [31]): 0.149 µM; Drug metabolism (Mus musculus [32]): 0.0121 µM
